# Assay results published in publication PMC5559490, “Synthesis of Saccharumoside-B analogue with potential of antiproliferative and pro-apoptotic activities” (Scientific Reports, 2017).
# Where two headings read alike, the source gives them in different places.
# Experiments:
# [1] = tested on: human peripheral blood mononuclear cells (PBMC); assay: MTT assay on normal PBMC; assay type: cell-based; settings: 48 h, read-out: IC50 PBMC (normal cells)
# [2] = tested on: HeLa cervical cancer cells; assay: MTT antiproliferative assay, HeLa; assay type: cell-based; settings: Homo sapiens, read-out: IC50 HeLa Cervical
# [3] = tested on: DU145 prostate cancer cells; assay: MTT antiproliferative assay, DU145; assay type: cell-based; settings: Homo sapiens
# HL-60 leukemia cells = assay: MTT antiproliferative assay, HL-60; assay type: cell-based, human; settings: Homo sapiens
# [4] = tested on: MIA PaCa-2 pancreatic cancer cells; assay: MTT antiproliferative assay, MIA PaCa-2; assay type: cell-based; settings: Homo sapiens
# [5] = tested on: MCF-10A mammary epithelial cells; assay: MTT assay on normal MCF-10A cells; assay type: cell-based; settings: Homo sapiens, 48 h, read-out: IC50 MCF-10A Breast (normal cell line)
# [6] = tested on: MCF-7 breast cancer cells; assay: MTT antiproliferative assay, MCF-7; assay type: cell-based; settings: Homo sapiens
# [7] = tested on: CaCo-2 colon cancer cells; assay: MTT antiproliferative assay, CaCo-2; assay type: cell-based; settings: Homo sapiens
# MCF-7 cells = assay: Rhodamine-123 mitochondrial membrane potential assay, MCF-7; assay type: cell-based, human; settings: 24 h
# Experimental: [Worded in the source for another cell line; this cell line is reported under the same test.] Mitochondrial membrane potential changes (ΔΨm) were determined by flow cytometry using rhodamine-123 (green-fluorescent dye)[32]. MIA PaCa-2 pancreatic cancer cells (1 × 10^6 cells/well) were exposed to the isolated compound (5 µM) for 24 h. Further, rhodamine-123 (200 nM) was added to the cells, which were kept in dark for 35 min. The cells were further centrifuged and the pellet was washed with phosphate buffered saline (1 ml). The intensity of fluorescence in the cells represented the mitochondrial membrane potential change (ΔΨm), which was measured using a flow cytometer.
# [8] = MTT assay, cancer cell line, mean of three independent experiments ± S.E.M.
# [9] = DU-145, MTT assay, cancer cell line, mean of three independent experiments ± S.E.M., read-out: IC50 DU145 Prostate
# [10] = HL-60, MTT assay, cancer cell line, mean of three independent experiments ± S.E.M., read-out: IC50 HL-60 Leukemia
# [11] = MIA PaCa-2, MTT assay, cancer cell line, mean of three independent experiments ± S.E.M., read-out: IC50 MIA PaCa-2 Pancreatic
# [12] = MCF7, MTT assay, cancer cell line, mean of three independent experiments ± S.E.M., read-out: IC50 MCF-7 Breast
# [13] = Caco-2, MTT assay, cancer cell line, mean of three independent experiments ± S.E.M., read-out: IC50 CaCo-2 Colon
"IC50 [2, 8] [µM]","IC50 [3, 9] [µM]",IC50 (HL-60 leukemia cells; [10]) [µM],"IC50 [4, 11] [µM]","IC50 [6, 12] [µM]","IC50 [7, 13] [µM]",melting point [°C],SMILES,"IC50 ([1]; MTT assay, normal cells) [µM]","IC50 ([5]; MTT assay, normal cells) [µM]",mitochondria membrane potential loss (MCF-7 cells; 5 µM) [%],mitochondria membrane potential loss (MCF-7 cells; 10 µM) [%],IC50 [1] [µM],IC50 [2] [µM],"IC50 ([3]; DU-145, read-out: IC50 DU145 Prostate) [µM]","IC50 (HL-60 leukemia cells; HL-60, read-out: IC50 HL-60 Leukemia) [µM]","IC50 ([4]; MIA PaCa-2, read-out: IC50 MIA PaCa-2 Pancreatic) [µM]",IC50 [5] [µM],"IC50 ([6]; MCF7, read-out: IC50 MCF-7 Breast) [µM]","IC50 ([7]; Caco-2, read-out: IC50 CaCo-2 Colon) [µM]"
36.3 ± 1.76,49.6 ± 3.59,31.8 ± 1.58,43.8 ± 1.75,33.8 ± 0.73,41.1 ± 1.48,131 to 133,"COc1cc(OC)cc(C(=O)OCC2OC(Oc3c(OC)cc(CO)cc3OC)C(O)C(O)C2O)c1 (stereo not drawn) [Compound 9l, (6-(4-(hydroxymethyl)-2,6-dimethoxyphenoxy)-tetrahydro-3,4,5-trihydroxy-2H-pyran-2-yl)methyl 3,5-dimethoxybenzoate]",> 100,> 100,,,,,,,,,,
26.6 ± 1.37,42.8 ± 0.59,18.5 ± 0.78,23.9 ± 0.74,22 ± 0.72,28.3 ± 1.47,201 to 203,"COc1cc(CO)cc(OC)c1OC1OC(COC(=O)c2ccc(C)cc2)C(O)C(O)C1O (stereo not drawn) [Compound 9k, (6-(4-(hydroxymethyl)-2,6-dimethoxyphenoxy)-tetrahydro-3,4,5-trihydroxy-2H-pyran-2-yl)methyl 4-methylbenzoate]",> 100,> 100,,,,,,,,,,
,49.4 ± 1.72,22.2 ± 1.32,36.3 ± 1.58,33.4 ± 0.76,43.5 ± 1.87,168 to 170,"COc1cc(CO)ccc1OC1OC(COC(=O)c2cc(OC)c(OC)c(OC)c2)C(O)C(O)C1O (stereo not drawn) [Compound 9e, (6-(4-(hydroxymethyl)-2-methoxyphenoxy)-tetrahydro-3,4,5-trihydroxy-2H-pyran-2-yl)methyl 3,4,5-trimethoxybenzoate]",> 100,> 100,,,,,,,,,,
39.5 ± 2.43,42.5 ± 1.51,25.2 ± 1.92,44.6 ± 2.67,28.3 ± 1.47,37.4 ± 1.65,199 to 201,"COc1cc(OC)cc(C(=O)OCC2OC(Oc3ccc(CO)cc3OC)C(O)C(O)C2O)c1 (stereo not drawn) [Compound 9d, (6-(4-(hydroxymethyl)-2-methoxyphenoxy)-tetrahydro-3,4,5-trihydroxy-2H-pyran-2-yl)methyl 3,5-dimethoxybenzoate]",> 100,> 100,,,,,,,,,,
39.9 ± 2.6,33.5 ± 1.43,31.8 ± 1.82,28.3 ± 0.76,24.9 ± 1.67,44.7 ± 2.52,200 to 202,"COc1cc(C(=O)OC[C@H]2O[C@@H](Oc3ccc(CO)cc3OC)[C@H](O)[C@@H](O)[C@@H]2O)ccc1O [Compound 10, (6-(4-(hydroxymethyl)-2-methoxyphenoxy)-tetrahydro-3,4,5-trihydroxy-2H-pyran-2-yl) methyl 4-hydroxy-3-methoxy benzoate]",> 100,> 100,,,,,,,,,,

# Continued, molecule first:
SMILES,"IC50 [2, 8] [µM]","IC50 [3, 9] [µM]",IC50 (HL-60 leukemia cells; [10]) [µM],"IC50 [4, 11] [µM]","IC50 [6, 12] [µM]","IC50 [7, 13] [µM]",melting point [°C],"IC50 ([1]; MTT assay, normal cells) [µM]","IC50 ([5]; MTT assay, normal cells) [µM]",mitochondria membrane potential loss (MCF-7 cells; 5 µM) [%],mitochondria membrane potential loss (MCF-7 cells; 10 µM) [%],IC50 [1] [µM],IC50 [2] [µM],"IC50 ([3]; DU-145, read-out: IC50 DU145 Prostate) [µM]","IC50 (HL-60 leukemia cells; HL-60, read-out: IC50 HL-60 Leukemia) [µM]","IC50 ([4]; MIA PaCa-2, read-out: IC50 MIA PaCa-2 Pancreatic) [µM]",IC50 [5] [µM],"IC50 ([6]; MCF7, read-out: IC50 MCF-7 Breast) [µM]","IC50 ([7]; Caco-2, read-out: IC50 CaCo-2 Colon) [µM]"
"COc1cc(CO)ccc1OC1OC(COC(=O)c2ccccc2)C(O)C(O)C1O (stereo not drawn) [Compound 9b, (6-(4-(hydroxymethyl)-2-methoxyphenoxy)-tetrahydro-3,4,5-trihydroxy-2H-pyran-2-yl)methyl benzoate]",36.7 ± 2.31,37.3 ± 2.54,22.8 ± 1.3,39.3 ± 1.42,26.4 ± 0.96,47.3 ± 1.62,187 to 189,> 100,> 100,,,,,,,,,,
"COc1cc(CO)ccc1OC1OC(COC(=O)c2cccnc2)C(O)C(O)C1O (stereo not drawn) [Compound 9h, (6-(4-(hydroxymethyl)-2-methoxyphenoxy)-tetrahydro-3,4,5-trihydroxy-2H-pyran-2-yl)methyl nicotinate]",35.4 ± 2.2,42.1 ± 1.52,30.2 ± 1.32,33.9 ± 1.41,33.9 ± 0.48,49.04 ± 0.48,194 to 196,> 100,> 100,,,,,,,,,,
"COc1cc(CO)cc(OC)c1OC1OC(COC(=O)c2ccc(F)cc2)C(O)C(O)C1O (stereo not drawn) [Compound 9m, (6-(4-(hydroxymethyl)-2,6-dimethoxyphenoxy)-tetrahydro-3,4,5-tri hydroxy-2H-pyran-2-yl)methyl 4-fluorobenzoate]",34.1 ± 1.83,33.8 ± 1.27,21.8 ± 1.53,47.3 ± 2.54,28.4 ± 0.69,35.6 ± 1.46,170 to 172,> 100,> 100,,,,,,,,,,
"COc1cc(CO)cc(OC)c1OC1OC(COC(=O)c2ccccc2)C(O)C(O)C1O (stereo not drawn) [Compound 9j, (6-(4-(hydroxymethyl)-2,6-dimethoxyphenoxy)-tetrahydro-3,4,5-trihydroxy-2H-pyran-2-yl)methyl benzoate]",30.4 ± 2.81,36.8 ± 0.59,25.6 ± 0.94,45.76 ± 0.42,29.4 ± 0.79,33.6 ± 1.51,180 to 182,> 100,> 100,,,,,,,,,,
"COc1cc(CO)cc(OC)c1OC1OC(COC(=O)c2ccccc2I)C(O)C(O)C1O (stereo not drawn) [Compound 9n, (6-(4-(hydroxymethyl)-2,6-dimethoxyphenoxy)-tetrahydro-3,4,5-tri hydroxy-2H-pyran-2-yl)methyl 2-iodobenzoate]",32.1 ± 1.35,37.9 ± 2.48,28.3 ± 1.72,26.8 ± 1.25,35 ± 1.52,45.2 ± 1.79,124 to 126,> 100,> 100,,,,,,,,,,
"COc1cc(CO)ccc1OC1OC(COC(=O)c2ccccc2I)C(O)C(O)C1O (stereo not drawn) [Compound 9g, (6-(4-(hydroxymethyl)-2-methoxyphenoxy)-tetrahydro-3,4,5-trihydroxy-2H-pyran-2-yl)methyl 2-iodobenzoate]",41.9 ± 3.15,38.32 ± 0.37,33.5 ± 1.45,23.4 ± 1.53,28.9 ± 0.47,43.9 ± 2.52,128 to 130,> 100,> 100,,,,,,,,,,
"CC[C@@]1(O)C(=O)OCc2c1cc1n(c2=O)Cc2cc3ccccc3nc2-1 [Camptothecin, camptothecin, reference compound]",4.28 ± 0.32,6.75 ± 0.45,4.95 ± 0.5,4.24 ± 0.41,5.16 ± 0.32,3.68 ± 0.21,,> 100,> 100,53.33 ± 3.06,62 ± 2.31,,,,,,,,
"COc1cc(CO)ccc1OC1OC(COC(=O)c2ccc(C)cc2)C(O)C(O)C1O (stereo not drawn) [Compound 9c, (6-(4-(hydroxymethyl)-2-methoxyphenoxy)-tetrahydro-3,4,5-trihydroxy-2H-pyran-2-yl)methyl 4-methylbenzoate]",14.2 ± 0.68,12.4 ± 0.47,12.5 ± 0.81,13.3 ± 0.25,9.34 ± 0.48,13.7 ± 0.63,228 to 230,> 100,> 100,,,,,,,,,,
"COc1cc(CO)ccc1OC1OC(COC(=O)c2cc([N+](=O)[O-])cc([N+](=O)[O-])c2)C(O)C(O)C1O (stereo not drawn) [Compound 9i, (6-(4-(hydroxymethyl)-2-methoxyphenoxy)-tetrahydro-3,4,5-trihydroxy-2H-pyran-2-yl)methyl 3,5-dinitrobenzoate]",,,,,,,186 to 188,,,,,> 100,38.4 ± 1.53,43.6 ± 1.87,29.6 ± 0.83,34.8 ± 1.93,> 100,34.8 ± 0.51,47 ± 2.58
